ChEMBL document CHEMBL1201862, “PubChem BioAssay data set” (2004)
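All cell lines were grown in 96-well plates and treated with compound for 48 hours. Here, GI50 denotes the concentration required for 50% inhibition of growth.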 The source made the active and inactive calls. Rule as the data show it: active = GI50 up to about 1.1 µM and inactive = higher.

What was measured:
Assay in all cases: inhibition of tumour cell growth, NCI panel, 48 h
ACHN = tested on: ACHN
MDA-MB-435 = tested on: MDA-MB-435
SK-MEL-5 = tested on: SK-MEL-5
A498 = tested on: A498
HCT-116 = tested on: HCT-116
SN12C = tested on: SN12C
DU-145 = tested on: DU-145
IGROV-1 = tested on: IGROV-1
SNB-75 = tested on: SNB-75
LOX IMVI = tested on: LOX IMVI
SF-295 = tested on: SF-295
UACC-257 = tested on: UACC-257
NCI-H460 = tested on: NCI-H460
T47D = tested on: T47D
NCI/ADR-RES = tested on: NCI/ADR-RES
HT-29 = tested on: HT-29
BT-549 = tested on: BT-549
Malme-3M = tested on: Malme-3M
RPMI-8226 = tested on: RPMI-8226
OVCAR-8 = tested on: OVCAR-8

Structure (SMILES) | GI50 (ACHN) | GI50 (MDA-MB-435) | GI50 (SK-MEL-5) | GI50 (A498) | GI50 (HCT-116) | GI50 (SN12C) | GI50 (DU-145) | GI50 (IGROV-1) | GI50 (SNB-75) | GI50 (LOX IMVI) | GI50 (SF-295) | GI50 (UACC-257) | GI50 (NCI-H460) | GI50 (T47D) | GI50 (NCI/ADR-RES) | GI50 (HT-29) | GI50 (BT-549) | GI50 (Malme-3M) | GI50 (RPMI-8226) | GI50 (OVCAR-8)
CC(=O)OCc1cc2ccccc2nc1C(Br)(Br)Br | 13.2 µM (inactive) | 13.3 µM (inactive) | 11.1 µM (inactive) | 21.2 µM (inactive) | 12.5 µM (inactive) | 13.2 µM (inactive) | 4.59 µM (inactive) | 12 µM (inactive) | 14.6 µM (inactive) | 11.1 µM (inactive) | 16.4 µM (inactive) | 12.4 µM (inactive) | 16.2 µM (inactive) | 27.8 µM (inactive) | 17.1 µM (inactive) | 21.6 µM (inactive) | 10.4 µM (inactive) | 0.603 µM (active) |  | 
N#CC1=C(N)N(c2ccccc2)C(c2ccccc2)C1(C#N)C#N (stereo unspecified) | 18.1 µM (inactive) | 18.8 µM (inactive) | 13.5 µM (inactive) | 17.4 µM (inactive) | 14.5 µM (inactive) | 18.8 µM (inactive) | 17.8 µM (inactive) | 15.7 µM (inactive) | 15.3 µM (inactive) | 16.6 µM (inactive) | 18.4 µM (inactive) | 19.1 µM (inactive) |  | 10.4 µM (inactive) | 20.3 µM (inactive) | 15.7 µM (inactive) | 16.7 µM (inactive) | 17.6 µM (inactive) | 14.8 µM (inactive) | 16.2 µM (inactive)
C[N+]1(c2ccccc2)C=C(c2ccccc2)SC1=S (stereo unspecified) | > 100 µM (inactive) | > 100 µM (inactive) | 33.4 µM (inactive) | 6.12 µM (inactive) | > 100 µM (inactive) | > 100 µM (inactive) | 3.9 µM (inactive) | > 100 µM (inactive) |  | > 100 µM (inactive) | > 100 µM (inactive) | 48.9 µM (inactive) | 95.7 µM (inactive) | 1.67 µM (inactive) | > 100 µM (inactive) | 7.43 µM (inactive) | > 100 µM (inactive) | 73.1 µM (inactive) | 21 µM (inactive) | > 100 µM (inactive)
COC(=O)c1sc(=S)sc1SCc1ccc(CSc2sc(=S)sc2C(=O)OC)cc1 | > 100 µM (inactive) | > 100 µM (inactive) | > 100 µM (inactive) | > 100 µM (inactive) | > 100 µM (inactive) | > 100 µM (inactive) | > 100 µM (inactive) | > 100 µM (inactive) | > 100 µM (inactive) | > 100 µM (inactive) | > 100 µM (inactive) | > 100 µM (inactive) | > 100 µM (inactive) | > 100 µM (inactive) | > 100 µM (inactive) | > 100 µM (inactive) | > 100 µM (inactive) | > 100 µM (inactive) |  | > 100 µM (inactive)
COC(=O)[C@@H]1COC(=O)N1 | > 100 µM (inactive) | > 100 µM (inactive) | > 100 µM (inactive) | > 100 µM (inactive) | > 100 µM (inactive) | > 100 µM (inactive) | > 100 µM (inactive) | > 100 µM (inactive) | > 100 µM (inactive) | > 100 µM (inactive) | > 100 µM (inactive) | > 100 µM (inactive) | > 100 µM (inactive) | > 100 µM (inactive) | > 100 µM (inactive) | > 100 µM (inactive) | > 100 µM (inactive) | > 100 µM (inactive) |  | > 100 µM (inactive)
CC1(C)CC(=O)c2c(nc3c4c([nH]c(-c5ccc(Br)cc5)c24)CC(C)(C)C3)C1 | 42.7 µM (inactive) | 29.7 µM (inactive) | 26.8 µM (inactive) | 13.6 µM (inactive) | 36.3 µM (inactive) | 98.6 µM (inactive) | 65.3 µM (inactive) |  | 27.9 µM (inactive) | 30.2 µM (inactive) | 21.3 µM (inactive) | 66.7 µM (inactive) | 37.8 µM (inactive) | 23.2 µM (inactive) | 33.7 µM (inactive) | 4.79 µM (inactive) | 35.8 µM (inactive) | 49.1 µM (inactive) |  | 49.8 µM (inactive)
CC1CNC(c2ccc(CN3CCC(CCCC4CCN(Cc5ccc(C6=NC(C)CN6)cc5)CC4)CC3)cc2)=N1 (stereo unspecified) | > 100 µM (inactive) | 17.2 µM (inactive) | > 100 µM (inactive) | > 100 µM (inactive) | 29 µM (inactive) | 84.7 µM (inactive) | 45.8 µM (inactive) | > 100 µM (inactive) | 23.4 µM (inactive) | 82.4 µM (inactive) | > 100 µM (inactive) | 18.8 µM (inactive) | 18.5 µM (inactive) | 50 µM (inactive) | > 100 µM (inactive) | 30.9 µM (inactive) | > 100 µM (inactive) | > 100 µM (inactive) |  | 71.3 µM (inactive)
